Results taken from patent US6362369B1, “Phthalic acid diamide derivatives fluorine-containing aniline compounds as starting material, agricultural and horticultural insecticides, and a method for application of the insecticides” (Nihon Nohyaku Co., Ltd., priority 1997, dated 2002).

Test system: diamondback moth (Plutella xylostella)
Assay: Insecticidal effect on diamondback moth (Test Example 1)
Type: in vivo
Conditions: diamondback moth; judged by the criterion of Test Example 1
Method in brief: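 Chinese cabbage seedlings carrying eggs laid by released adult moths were immersed in treatment, air-dried and held at 25° C. Hatched insects were counted six days after immersion, and mortality was calculated and scored against a fixed criterion. Three replicate groups of 10 insects were used.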

SMILES	Insecticidal effect (Test Example 1), judged from mortality
Cc1cc(C(F)(F)C(F)(F)F)ccc1NC(=O)c1c(I)cccc1C(=O)N[C@@H](C)CO [compound 1518]	A (100)

Same assay, conditions: diamondback moth; judged by the mortality criterion of Test Example 1

SMILES	Insecticidal effect, Test Example 1
CC(C)NC(=O)c1c(Cl)cccc1C(=O)Nc1ccc(OC(F)F)cc1 [compound 92]	A (100)
Cc1cc(SC(C)C)ccc1NC(=O)c1cccc(I)c1C(=O)NC(C)C [compound 402]	A (100)
Cc1c(NC(=O)c2c(Cl)cccc2C(=O)NC(C)C)cccc1OC(F)(F)C(F)Cl (centres unmarked) [compound 240]	A (100)
Cc1c(NC(=O)c2cccc(Br)c2C(=O)NC(C)C)ccc(OC(F)F)c1C [compound 295]	D (79-50)
CC(C)NC(=O)c1ccc(Cl)cc1C(=O)Nc1ccc(F)c(F)c1F [compound 194]	A (100)
CC(=O)c1ccc(NC(=O)c2c(Cl)cccc2C(=O)NC(C)C)cc1 [compound 207]	A (100)
Cc1cc(Cl)ccc1NC(=O)c1c(I)cccc1C(=O)NC(C)C [compound 428]	A (100)
CC(C)NC(=O)c1ccccc1C(=O)Nc1ccc(SC(F)F)cc1 [compound 32]	A (100)

Same assay, conditions: diamondback moth; mortality judged by criterion of Test Example 1

SMILES	Insecticidal effect, Test Example 1
CCN(CC)C(=O)c1cccc([N+](=O)[O-])c1C(=O)Nc1ccc(OC(F)(F)C(F)F)cc1C [compound 1137]	A (100)
Cc1cc(C(F)(F)C(F)(F)F)ccc1NC(=O)c1c(I)cccc1C(=O)NC(C)C(C)C (centres unmarked) [compound 1034]	A (100)
CCN(CC)C(=O)c1c(I)cccc1C(=O)Nc1ccc2nc(-c3ccccc3C(F)(F)F)oc2c1 [compound 1178]	A (100)
CCN(CC)C(=O)c1c(I)cccc1C(=O)Nc1ccc2oc(-c3ccc(C(F)(F)F)cc3)nc2c1 [compound 1175]	A (100)
Cc1cc(C(F)(F)C(F)(F)F)ccc1NC(=O)c1cccc(Cl)c1C(=O)NCCc1ccccc1Cl [compound 1356]	A (100)
Cc1cc(C(F)(F)C(F)(F)F)ccc1NC(=O)c1c(I)cccc1C(=O)NCc1ccccc1 [compound 1401]	A (100)
CCN(CC)C(=O)c1c(OC(F)(F)F)cccc1C(=O)Nc1ccc(C(F)(C(F)(F)F)C(F)(F)F)cc1C [compound 1238]	A (100)
Cc1cc(C(F)(F)C(F)(F)F)ccc1NC(=O)c1c(I)cccc1C(=O)NC1CCCC1 [compound 992]	A (100)
COc1ccc(CNC(=O)c2c(Cl)cccc2C(=O)Nc2ccc(C(F)(F)C(F)(F)F)cc2C)cc1 [compound 1347]	A (100)
CCN(CC)C(=O)c1c(I)cccc1C(=O)Nc1ccc2nc(C(F)(F)C(F)(F)F)oc2c1 [compound 1182]	A (100)
Cc1cc(OC(F)(F)F)ccc1NC(=O)c1ccc(F)c(Cl)c1C(=O)NC(C)(C)C [compound 1260]	A (100)

Same assay, conditions: mortality judged according to the criterion shown in Test Example 1

SMILES	Insecticidal effect on diamondback moth (Test Example 1), judged grade
CC(C)NC(=O)c1c(C(=O)Nc2cc(Cl)cc(Cl)c2)cccc1[N+](=O)[O-] [compound 637]	A (100)
CC(C)NC(=O)c1c(C(=O)Nc2cccc(F)c2F)cccc1[N+](=O)[O-] [compound 638]	B (99-90)
CC(C)NC(=O)c1cccc(F)c1C(=O)Nc1cc(Cl)c(OC(F)F)c(Cl)c1 [compound 560]	A (100)
CSc1cccc(NC(=O)c2cccc([N+](=O)[O-])c2C(=O)NC(C)C)c1 [compound 621]	A (100)
Cc1cccc(C(=O)Nc2ccc(OC(F)(F)F)cc2)c1C(=O)NC(C)C [compound 749]	A (100)
Cc1cc(Cl)ccc1NC(=O)c1c(C#N)cccc1C(=O)NC(C)C [compound 745]	D (79-50)
CC(C)NC(=O)c1c(C(=O)Nc2ccccc2C(F)(F)F)cccc1[N+](=O)[O-] [compound 608]	A (100)
Cc1ccc([N+](=O)[O-])cc1NC(=O)c1cccc([N+](=O)[O-])c1C(=O)NC(C)C [compound 708]	D (79-50)
Cc1cc(Cl)ccc1NC(=O)c1cccc(C#N)c1C(=O)NC(C)C [compound 744]	C (89-80)
Cc1cc(Oc2c(F)c(F)c(F)c(F)c2F)ccc1NC(=O)c1c(F)cccc1C(=O)NC(C)C [compound 573]	A (100)
CC(C)NC(=O)c1c(C(=O)Nc2ccc(F)c(F)c2F)cccc1[N+](=O)[O-] [compound 645]	A (100)
CCC(CC)NC(=O)c1c(C(=O)Nc2ccc(OC(F)F)cc2C)cccc1[N+](=O)[O-] [compound 845]	A (100)
CC(C)NC(=O)c1c(C(=O)Nc2ccc(OC(F)F)c(Cl)c2)cccc1[N+](=O)[O-] [compound 658]	A (100)
Cc1cc(SC(C)C)ccc1NC(=O)c1c(I)cccc1C(=O)NC(C)C [compound 462]	A (100)
Cc1ccc(Cl)cc1NC(=O)c1cccc([N+](=O)[O-])c1C(=O)NC(C)c1ccccc1 (centres unmarked) [compound 878]	C (89-80)
Cc1cc(NC(=O)c2cccc([N+](=O)[O-])c2C(=O)NC(C)C)c(F)cc1Cl [compound 657]	D (79-50)
Cc1cc(Oc2ncc(C(F)(F)F)cc2Cl)ccc1NC(=O)c1c(I)cccc1C(=O)NC(C)C [compound 461]	A (100)
CC(C)NC(=O)c1c(C(=O)Nc2ccc3c(c2)OCO3)cccc1[N+](=O)[O-] [compound 733]	A (100)
CCOC(CNC(=O)c1c(C(=O)Nc2ccc(OC(F)F)cc2C)cccc1[N+](=O)[O-])OCC [compound 875]	A (100)
CC(C)NC(=O)c1c(C(=O)Nc2c(Cl)cc(C(F)(F)F)cc2Cl)cccc1[N+](=O)[O-] [compound 662]	A (100)
CC(C)NC(=O)c1c(C(=O)Nc2ccc(SCC(F)(F)F)cc2)cccc1[N+](=O)[O-] [compound 624]	A (100)
Cc1cc(C)c(NC(=O)c2cccc([N+](=O)[O-])c2C(=O)NC(C)C)c(C)c1 [compound 652]	A (100)
CC(C)NC(=O)c1cccc(Cl)c1C(=O)Nc1ccc(C=C(Br)Br)cc1 [compound 914]	A (100)
Cc1cc(Cl)ccc1N(C)C(=O)c1ccccc1C(=O)NC(C)C [compound 827]	A (100)
C#CCNC(=O)c1c(C(=O)Nc2ccc(OC(F)F)cc2C)cccc1[N+](=O)[O-] [compound 870]	A (100)
COCCNC(=O)c1c(C(=O)Nc2cc(Cl)ccc2C)cccc1[N+](=O)[O-] [compound 871]	A (100)
Cc1cc(OC(F)F)ccc1NC(=O)c1cccc([N+](=O)[O-])c1C(=O)NC(C)C(C)C (centres unmarked) [compound 846]	A (100)
